Data published in publication PMC10049495, “Antitumor Activity of PEGylated and TEGylated Phenothiazine Derivatives: Structure–Activity Relationship” (International Journal of Molecular Sciences, 2023).
Several values for one entry are separate records, joined by “and”; a condition that tells them apart may be missing. Identical values can stand only once. Like-named read-outs stand apart in the source and are kept apart here.

How the values were obtained:
MCF-7 = conditions: cited from earlier work
[1] = test system: cervical carcinoma (HeLa) cells; assay: Cytotoxicity MTS assay on HeLa; assay type: cell-based, human; conditions: for IC50: HeLa, 48 h, MTS, tested 0.01-0.3 mM, read-out: Half maximal inhibition concentration (IC50); for Selectivity index (SI): IC50 NHDF / IC50 HeLa
Method: (§1) Cell culture: NHDF, HeLa, HOS, HepG2, MCF7, MeWo and CT-26 cells were cultivated in complete Eagle’s Minimal Essential Medium alpha (aMEM) containing a 1% Penicillin–Streptomycin–Amphotericin B mixture and a 10% fetal bovine serum under 5% CO2 humidified atmosphere at 37 °C. LN-229 cells were cultivated in DMEM with a 1% Penicillin–Streptomycin–Amphotericin B mixture and a 5% fetal bovine serum. U-118 cells were cultivated in DMEM with a 1% Penicillin–Streptomycin–Amphotericin B mixture and a 10% fetal bovine serum. StemPro™ Accutase™ Cell Dissociation Reagent was used for passaging MeWo and U-118 cells, and TrypLE Express was used for all other cell lines.
(§2) The working solutions were prepared by diluting the stock solutions with complete medium so that the final concentration of DMSO in the cell culture was 1%. The working solutions were used for incubation. Control cells were treated only with complete cell culture medium containing 1% DMSO.
(§3) Cytotoxicity MTS assay: In order to perform the MTS assay, cells were placed in culture-treated 96-well plates at densities of 5 × 10^3 cells/well (NHDF and CT-26), 7 × 10^3 cells/well (MCF7) and 10 × 10^3 cells/well (HOS, HeLa, HepG2, MeWo, LN-229, U-118) in 100 μL of a MEM medium/well and allowed to adhere for 24 h. After 24 h, the culture medium was replaced with the tested compound solutions at various concentrations, and the plates were incubated for another 48 h. Before the final reading, 20 μL CellTiter 96® Aqueous One Solution/well was added, and the plates were incubated for 1–4 h. Finally, the absorbance was recorded with a microplate reader at λ = 490 nm. The relative cell viability was expressed as a percentage of the viability of control, and the half maximal inhibitory concentration (IC50) was determined from the graphical representation of the cell viability vs. concentration. Graphical data were expressed as means ± standard error of the mean (S.E.M.). Statistical analysis was made with two-way ANOVA using Tukey’s multiple comparisons test. The difference was considered significant when p < 0.05. Data analysis was performed with GraphPad Prism software version 7.00 for Windows.

[2] = test system: liver cancer (HepG2) cells; assay: Cytotoxicity MTS assay on HepG2; assay type: cell-based, human; conditions: for IC50: HepG2, 48 h, MTS, tested 0.01-0.3 mM, read-out: Half maximal inhibition concentration (IC50)
Method: as §1, §2, §3

[3] = test system: normal human dermal fibroblasts (NHDF); assay: Cytotoxicity MTS assay on normal fibroblasts; assay type: cell-based; conditions: 48 h, tested 0.01-0.3 mM, read-out: Half maximal inhibition concentration (IC50)
Method: as §1, §2, §3

[4] = test system: malignant melanoma (MeWo) cells; assay: Cytotoxicity MTS assay on MeWo; assay type: cell-based, human; conditions: for IC50: MeWo, 48 h, MTS, tested 0.01-0.3 mM, read-out: Half maximal inhibition concentration (IC50); for Selectivity index (SI): IC50 NHDF / IC50 MeWo
Method: as §1, §2, §3

[5] = test system: mouse colon carcinoma cell line (CT26); assay: Cytotoxicity MTS assay on CT-26; assay type: cell-based; conditions: for IC50: CT-26, 48 h, MTS, tested 0.01-0.3 mM, read-out: Half maximal inhibition concentration (IC50); for Selectivity index (SI): IC50 NHDF / IC50 CT-26
Method: as §1, §2, §3

[6] = test system: breast cancer (MCF7) cells; assay: Cytotoxicity MTS assay on MCF-7; assay type: cell-based, human; conditions: for IC50: MCF-7, 48 h, MTS, tested 0.01-0.3 mM, read-out: Half maximal inhibition concentration (IC50); for Selectivity index (SI): IC50 NHDF / IC50 MCF7
Method: as §1, §2, §3

[7] = test system: glioblastoma cell line (U-118); assay: Cytotoxicity MTS assay on U-118; assay type: cell-based, human; conditions: for IC50: U-118, 48 h, MTS, tested 0.01-0.3 mM, read-out: Half maximal inhibition concentration (IC50)
Method: as §1, §2, §3

[8] = test system: glioblastoma (LN229) cells; assay: Cytotoxicity MTS assay on LN229; assay type: cell-based, human; conditions: tested 0.01-0.3 mM, read-out: Half maximal inhibition concentration (IC50)
Method: as §1, §2, §3

[9] = DPPH radical scavenging activity; conditions: for DPPH radical inhibition: 1 mM compound, ethanol, 1 h in the dark
From the text: In this light, the antioxidant activity of the studied phenothiazine derivatives was investigated using DPPH assay, measuring the dependence of the free radical inhibition on the concentration as highlighted by a decreasing of the absorbance of DPPH when the concentration of the compound is increasing. The results, expressed in percentage of inhibition, are represented in Figure 4.
Ex Vivo Radical Scavenging Activity: In order to evaluate antioxidant activity of the studied compounds, a bleaching method of the 1,1-diphenyl-2-picryl hydrazyl (DPPH) radical was used. Briefly, a stock solution of 2 mM of each compound in ethanol was prepared and then diluted to obtain 10 different concentrations from 1 mM to 0.0019 mM using a 96-well plate. The diluted solutions with different concentrations were mixed with an equal volume of ethanolic DPPH solution (0.05 mg/mL), and the mixtures were incubated in the dark at room temperature […] for 1 h. After incubation, the absorbance was read at 517 nm. Inhibition percentage was calculated using Equation (2), where Ac is the absorbance of the control sample (DPPH) and As is the absorbance of the mixtures. All measurements were made in triplicate. I % = (Ac-As)/Ac × 100 (2)

osteosarcoma (HOS) cells = assay: Cytotoxicity MTS assay on HOS; assay type: cell-based, human; conditions: 48 h, tested 0.01-0.3 mM, read-out: Half maximal inhibition concentration (IC50)
Method: as §1, §2, §3

HepG2 = conditions: cited from earlier work
HeLa = conditions: cited from earlier work

Question: Which IC50 (MCF-7) does the source give for `CCN1c2ccc(-c3ccccc3)cc2Sc2cc(-c3nnc4ccccn34)ccc21` [3-([1,2,4]Triazolo[4,3-a]pyridin-3-yl)-10-ethyl-7-phenyl-10H-phenothiazine] here?
Answer: 10.2 µM

Question: With `COc1cc(Cn2cc(CN3c4ccccc4Sc4ccccc43)nn2)cc(OC)c1OC` [10-{[1-(3,4,5-Trimethoxybenzyl)-1H-1,2,3-triazol-4-yl]methyl}-10H-phenothiazine] as the compound, how does the IC50 (MCF-7) read?
Answer: 0.8 µM

Question: With `CCN1c2ccc(-c3ccc(OC)cc3)cc2Sc2cc(-c3nnc4ccccn34)ccc21` [3-([1,2,4]Triazolo[4,3-a]pyridin-3-yl)-10-ethyl-7-(4-methoxyphenyl)-10H-phenothiazine] as the compound, how does the IC50 (MCF-7) read?
Answer: 57.2 µM

Question: For `c1ccc2c(c1)Nc1ccccc1S2` [PTZ, phenothiazine], which IC50 ([1]; Homo sapiens) is on record?
Answer: 240 µM

Question: And the “Selectivity index (SI)” value [2]?
Answer: 2.42

Question: And the IC50 ([2]; Homo sapiens)?
Answer: 73 µM

Question: What about the IC50 ([3]; Homo sapiens) of the same compound?
Answer: 175 µM

Question: And the IC50 ([4]; Homo sapiens)?
Answer: > 300 µM

Question: What about the IC50 ([5]; Mus musculus, CT26) of the same compound?
Answer: 186 µM

Question: What about the IC50 ([6]; Homo sapiens, MCF7) of the same compound?
Answer: 188 µM

Question: What about the IC50 ([7]; Homo sapiens) of the same compound?
Answer: > 300 µM

Question: And the IC50 ([8]; Homo sapiens, LN-229, LN229, 48 h)?
Answer: > 300 µM

Question: What about the DPPH radical inhibition [9] of the same compound?
Answer: 67%

Question: What about the IC50 (osteosarcoma (HOS) cells; Homo sapiens) of the same compound?
Answer: > 300 µM

Question: For `Clc1ccc(-n2cc(CN3c4ccccc4Sc4ccccc43)nn2)cc1` [10-((1-(4-Chlorophenyl)-1H-1,2,3-triazol-4-yl)methyl)-10Hphenothiazine], which IC50 (HepG2) is on record?
Answer: 1.3 µM

Question: What does the source list for “4-((((10-(poly(ethylene glycol))-10H-phenothiazin-3-yl)methylene)amino)ethyl)benzenesulfonamide [PPEA]”?
Answer: IC50 [1]: 86 µM; Selectivity index (SI) [1]: 1.25; IC50 [2]: 40 µM; Selectivity index (SI) ([2]; IC50 NHDF / IC50 HepG2): 2.5; IC50 [3]: 108 µM; Selectivity index (SI) [4]: 1.66; IC50 [4]: 68 µM; IC50 [5]: 29 µM; Selectivity index (SI) [5]: 3.44; Selectivity index (SI) [6]: 1.11; IC50 [6]: 90 µM; IC50 [7]: 100 µM; IC50 ([8]; LN229, 48 h): 109 µM; DPPH radical inhibition [9]: 47%; IC50 (osteosarcoma (HOS) cells): > 300 µM

Question: With `CN1CCN(CCCN2c3ccccc3Sc3ccc(C(F)(F)F)cc32)CC1` [Trifluoperazine] as the compound, how does the IC50 (MCF-7) read?
Answer: 11.3 µM

Question: With `COc1ccc(-n2cc(CN3c4ccccc4Sc4ccccc43)nn2)cc1` [10-((1-(4-Methoxyphenyl)-1H-1,2,3-triazol-4-yl)methyl)-10Hphenothiazine] as the compound, how does the IC50 (HepG2) read?
Answer: 15 µM

Question: With `OC(CNCCc1ccccc1)CN1c2ccccc2Sc2ccccc21` (stereo not drawn) [1-Phenethylamino-3-(10H-phenothiazin-10-yl)-2-propanol] as the compound, how does the IC50 (HeLa) read?
Answer: 10 µM

Question: Which IC50 (MCF-7) does the source give for `CC(=O)c1cc(C(=O)c2ccc3c(c2)Sc2ccccc2N3)c2c(C)cc(C)cn12` [1-[(10H-Phenothiazin-3-yl)carbonyl]-3-acetyl-6,8-dimethylindolizine] here?
Answer: > 10 µM

Question: Which IC50 (MCF-7) does the source give for `COc1ccn2c(C(C)=O)cc(C(=O)c3ccc4c(c3)Sc3ccccc3N4)c2c1` [1-[(10H-Phenothiazin-3-yl)carbonyl]-3-acetyl-7-methoxyindolizine] here?
Answer: > 10 µM

Question: For “4-((((10-(poly(ethylene glycol))-10H-phenothiazin-3-yl)methylene)amino)methyl) benzenesulfonamide [PPMA]”, which IC50 [1] is on record?
Answer: 116 µM

Question: What about the “Selectivity index (SI)” value [1] of the same compound?
Answer: 1.36

Question: What about the IC50 [2] of the same compound?
Answer: 54 µM

Question: What about the “Selectivity index (SI)” value ([2]; IC50 NHDF / IC50 HepG2) of the same compound?
Answer: 3

Question: And the IC50 [3]?
Answer: 150 µM

Question: What about the “Selectivity index (SI)” value [4] of the same compound?
Answer: 1.5

Question: What about the IC50 [4] of the same compound?
Answer: 104 µM

Question: And the IC50 [5]?
Answer: 40 µM

Question: What about the “Selectivity index (SI)” value [5] of the same compound?
Answer: 3.75

Question: And the “Selectivity index (SI)” value [6]?
Answer: 1.66

Question: And the IC50 [6]?
Answer: 90 µM

Question: What about the “Selectivity index (SI)” value ([7]; IC50 NHDF / IC50 U118MG) of the same compound?
Answer: 1.66

Question: And the IC50 [7]?
Answer: 92 µM

Question: And the IC50 ([8]; LN229, 48 h)?
Answer: 239 µM

Question: What about the DPPH radical inhibition [9] of the same compound?
Answer: 44%

Question: What about the IC50 (osteosarcoma (HOS) cells) of the same compound?
Answer: > 300 µM

Question: Which IC50 (MCF-7) does the source give for `FC(F)(F)c1ccc2c(c1)N(Cc1cn(-c3ccc(Cl)cc3)nn1)c1ccccc1S2` [10-{[1-(4-Chlorophenyl)-1H-1,2,3-triazol-4-yl]methyl}-2-{trifluoromethyl}-10H-phenothiazine] here?
Answer: 29.6 µM

Question: For “10-(poly(ethylene glycol))-10H-phenothiazine-3-carbaldehyde [PPF]”, which IC50 [1] is on record?
Answer: > 300 µM

Question: What about the IC50 [2] of the same compound?
Answer: 100 µM and 106 µM

Question: And the IC50 [3]?
Answer: > 300 µM

Question: What about the IC50 [4] of the same compound?
Answer: 235 µM

Question: And the IC50 [5]?
Answer: 140 µM and 139 µM

Question: What about the IC50 [6] of the same compound?
Answer: 270 µM

Question: What about the IC50 [7] of the same compound?
Answer: > 300 µM

Question: And the IC50 ([8]; LN229, 48 h)?
Answer: > 300 µM

Question: And the “radical scavenging capacity (in words)” value ([9]; DPPH, 0.0019-1 mM)?
Answer: very low radical scavenging capacity

Question: And the IC50 (osteosarcoma (HOS) cells)?
Answer: > 300 µM

Question: Which IC50 (MCF-7) does the source give for `CC(=O)c1cc(C(=O)c2ccc3c(c2)Sc2ccccc2N3)c2cc(C)ccn12` [1-[(10H-Phenothiazin-3-yl)carbonyl]-3-acetyl-7-methylindolizine] here?
Answer: > 10 µM
